In general, IC50 refers to the concentration at which inhibition is half-maximal.

Format in all cases: functional, cell-based
In one experiment the test system is HT-29. The experiment can be described thus: Antiproliferative activity against human HT-29 cells assessed as reduction in cell viability incubated for 24 hrs by MTT assay. Conditions: HT-29, 24 h. Background: Tetrazolium assays rely on reduction of a dye to a coloured formazan, in cell work by metabolically active cells.
For a further experiment, the system named is HCT-116. The experiment is described as follows: Antiproliferative activity against human HCT-116 cells assessed as reduction in cell viability incubated for 24 hrs by MTT assay. The settings on record: HCT-116, 24 h.
A further experiment concerns HepG2. The experiment can be described thus: Antiproliferative activity against human HepG2 cells assessed as reduction in cell viability incubated for 24 hrs by MTT assay. The settings on record: HepG2, 24 h.
In another experiment the test system is MCF7. The experiment can be described thus: Antiproliferative activity against human MCF7 cells assessed as reduction in cell viability incubated for 24 hrs by MTT assay. The settings on record: MCF7, 24 h.

For the compound `CC(=O)O[C@H]1C=C([C@H](C)[C@H]2CC(C)=C(C)C(=O)O2)[C@@]2(C)CC[C@H]3[C@@H](C[C@H]4O[C@]45[C@@H](OC(=O)/C=C/c4ccco4)C=CC(=O)[C@]35C)[C@]12O`, the IC50 with HT-29 was determined as 450 nM; with HCT-116, 430 nM; in the experiment with HepG2 it was 310 nM; in the experiment with MCF7 it was 760 nM.

As to `CC(=O)O[C@H]1C=C([C@H](C)[C@H]2CC(C)=C(C)C(=O)O2)[C@@]2(C)CC[C@H]3[C@@H](C[C@H]4O[C@]45[C@@H](OC(=O)C(CC(C)C)NC(=O)OC(C)(C)C)C=CC(=O)[C@]35C)[C@]12O` (stereo partly specified), the IC50 amounted to 780 nM in the experiment with HT-29, 330 nM in the experiment on HCT-116, 520 nM in the experiment on HepG2 and 1060 nM in the experiment on MCF7.

As to `CC(=O)O[C@H]1C=C([C@H](C)[C@H]2CC(C)=C(C)C(=O)O2)[C@@]2(C)CC[C@H]3[C@@H](C[C@H]4O[C@]45[C@@H](OC(=O)N(C)C)C=CC(=O)[C@]35C)[C@]12O`, the IC50 with HT-29 was 1010 nM; with HCT-116 it was 670 nM; in the experiment on HepG2 it was 1060 nM; with MCF7 it was 2100 nM.

With `CC(=O)O[C@H]1C=C([C@H](C)[C@H]2CC(C)=C(C)C(=O)O2)[C@@]2(C)CC[C@H]3[C@@H](C[C@H]4O[C@]45[C@@H](OC(=O)N4CCOCC4)C=CC(=O)[C@]35C)[C@]12O`, the IC50 turned out to be 990 nM in the experiment on HT-29, 780 nM in the experiment on HCT-116, 670 nM in the experiment with HepG2 and 3890 nM with MCF7.

`CCC(C)C(NC(=O)OC(C)(C)C)C(=O)O[C@H]1C=CC(=O)[C@]2(C)[C@H]3CC[C@]4(C)C([C@H](C)[C@H]5CC(C)=C(C)C(=O)O5)=C[C@H](OC(C)=O)[C@@]4(O)[C@@H]3C[C@H]3O[C@]132` (stereo partly specified): the IC50 with HT-29 came out at 1080 nM; in the experiment on HCT-116, 570 nM; in the experiment with HepG2 it was 1660 nM; with MCF7, 4810 nM.

`CC(=O)O[C@H]1C=C([C@H](C)[C@H]2CC(C)=C(C)C(=O)O2)[C@@]2(C)CC[C@H]3[C@@H](C[C@H]4O[C@]45[C@@H](OC(=O)/C=C/C(=O)N(C(C)C)C(C)C)C=CC(=O)[C@]35C)[C@]12O`: the IC50 with HT-29 worked out at 190 nM; in the experiment with HCT-116, 350 nM; in the experiment with HepG2 it was 360 nM; with MCF7, 620 nM.

Consider `CC(=O)O[C@H]1C=C([C@H](C)[C@H]2CC(C)=C(C)C(=O)O2)[C@@]2(C)CC[C@H]3[C@@H](C[C@@H](O)[C@@]4(Cl)[C@@H](O)C=CC(=O)[C@]34C)[C@]12O`, for which the IC50 with HT-29, in the experiment on HCT-116, in the experiment with HepG2 and with MCF7 was > 20000 nM each time.

With `CC(=O)O[C@H]1[C@@H]2O[C@]2([C@H](C)[C@H]2CC(C)=C(C)C(=O)O2)[C@@]2(C)CC[C@H]3[C@@H](C[C@H]4O[C@]45[C@@H](O)C=CC(=O)[C@]35C)[C@]12O`, the IC50 in the experiment on HT-29 was determined as 4550 nM; with HCT-116, 5040 nM; in the experiment with HepG2, 4660 nM; in the experiment on MCF7, 9360 nM.

Consider `CC(=O)O[C@H]1C=C([C@H](C)[C@H]2CC(C)=C(C)C(=O)O2)[C@@]2(C)CC[C@H]3[C@@H](C[C@H]4O[C@]45[C@@H](OC(=O)/C=C/c4cccs4)C=CC(=O)[C@]35C)[C@]12O`, for which the IC50 worked out at 430 nM with HT-29, 380 nM in the experiment with HCT-116, 530 nM with HepG2 and 630 nM in the experiment with MCF7.

As to `CCOC(=O)/C=C/C(=O)O[C@H]1C=CC(=O)[C@]2(C)[C@H]3CC[C@]4(C)C([C@H](C)[C@H]5CC(C)=C(C)C(=O)O5)=C[C@H](OC(C)=O)[C@@]4(O)[C@@H]3C[C@H]3O[C@]132`, the IC50 was found to be 230 nM with HT-29, 250 nM in the experiment on HCT-116, 240 nM with HepG2 and 280 nM in the experiment on MCF7.

Turning to `C=C(C)C(=O)O[C@H]1C=CC(=O)[C@]2(C)[C@H]3CC[C@]4(C)C([C@H](C)[C@H]5CC(C)=C(C)C(=O)O5)=C[C@H](OC(C)=O)[C@@]4(O)[C@@H]3C[C@H]3O[C@]132`, the IC50 with HT-29 is 1120 nM; in the experiment on HCT-116 it was 1340 nM; with HepG2 it was 1450 nM; in the experiment with MCF7, 2110 nM.

Regarding `CC(=O)O[C@H]1C=C([C@H](C)[C@H]2CC(C)=C(C)C(=O)O2)[C@@]2(C)CC[C@H]3[C@@H](C[C@H]4O[C@]45[C@@H](OC(=O)CCc4ccccc4)C=CC(=O)[C@]35C)[C@]12O`, the 50% inhibitory concentration (IC50) in the experiment on HT-29 stood at 4050 nM; in the experiment on HCT-116 it was 5840 nM; in the experiment on HepG2, 5760 nM; in the experiment on MCF7, 8180 nM.

For the compound `CC(=O)O[C@H]1C=C([C@H](C)[C@H]2CC(C)=C(C)C(=O)O2)[C@@]2(C)CC[C@H]3[C@@H](C[C@H]4O[C@]45[C@@H](OC(=O)CNC(=O)OC(C)(C)C)C=CC(=O)[C@]35C)[C@]12O`, the 50% inhibitory concentration (IC50) in the experiment with HT-29 worked out at 630 nM; in the experiment with HCT-116 it was 470 nM; with HepG2 it was 640 nM; in the experiment with MCF7 it was 2160 nM.

For the compound `CCN(CC)C(=O)O[C@H]1C=CC(=O)[C@]2(C)[C@H]3CC[C@]4(C)C([C@H](C)[C@H]5CC(C)=C(C)C(=O)O5)=C[C@H](OC(C)=O)[C@@]4(O)[C@@H]3C[C@H]3O[C@]132`, the IC50 in the experiment on HT-29 turned out to be 750 nM; in the experiment with HCT-116, 430 nM; in the experiment with HepG2 it was 690 nM; with MCF7 it was 1210 nM.

As for `CC(=O)O[C@H]1C=C([C@H](C)[C@H]2CC(C)=C(C)C(=O)O2)[C@@]2(C)CC[C@H]3[C@@H](C[C@H]4O[C@]45[C@@H](O)C(N(C)CC(=O)O)CC(=O)[C@]35C)[C@]12O` (stereo partly specified), the IC50 in the experiment on HT-29, in the experiment on HCT-116, in the experiment on HepG2 and in the experiment with MCF7 was > 20000 nM in each case.

`CC(=O)O[C@H]1C=C([C@H](C)[C@H]2CC(C)=C(C)C(=O)O2)[C@@]2(C)CC[C@H]3[C@@H](C[C@H]4O[C@]45[C@@H](OC(=O)/C=C/c4cccc(C(F)(F)F)c4)C=CC(=O)[C@]35C)[C@]12O`: the IC50 in the experiment on HT-29 amounted to 810 nM; in the experiment on HCT-116 it was 650 nM; with HepG2, 420 nM; in the experiment with MCF7, 1390 nM.

Take `CC(=O)O[C@H]1C=C([C@H](C)[C@H]2CC(C)=C(C)C(=O)O2)[C@@]2(C)CC[C@H]3[C@@H](C[C@H]4O[C@]45[C@@H](OC(=O)/C=C/c4ccc(F)cc4)C=CC(=O)[C@]35C)[C@]12O`: the IC50 is 720 nM with HT-29, 1030 nM with HCT-116, 610 nM with HepG2 and 1580 nM in the experiment with MCF7.

`CCN(CC)C(=O)/C=C/C(=O)O[C@H]1C=CC(=O)[C@]2(C)[C@H]3CC[C@]4(C)C([C@H](C)[C@H]5CC(C)=C(C)C(=O)O5)=C[C@H](OC(C)=O)[C@@]4(O)[C@@H]3C[C@H]3O[C@]132`: the IC50 was 300 nM in the experiment with HT-29, 250 nM in the experiment on HCT-116, 310 nM with HepG2 and 450 nM in the experiment on MCF7.

Turning to `CC(=O)O[C@H]1C=C([C@H](C)[C@H]2CC(C)=C(C)C(=O)O2)[C@@]2(C)CC[C@H]3[C@@H](C[C@H]4O[C@]45[C@@H](OC(=O)C=C(C)C)C=CC(=O)[C@]35C)[C@]12O`, the IC50 in the experiment with HT-29 was 460 nM; with HCT-116, 280 nM; in the experiment on HepG2, 260 nM; with MCF7 it was 750 nM.

These data come from ChEMBL document CHEMBL4665792 (J Med Chem, 2020).
